# Test results published in paper PMC12848680, “Microbial Cross-Talk: Unlocking the Cytochalasin Diversity from a Termite-Associated Xylaria” (JACS Au, 2025).
# Where two headings read alike, the source gives them in different places.
# Columns and labels:
# E. coli ΔacrB (JW0451-2) = experiment: Antibacterial activity against E. coli ΔacrB; format: cell-based; settings: Escherichia coli, read-out: E. coli ΔacrB (JW0451-2) MIC
# [1] = test system: CHO-K1 (chinese hamster ovary cells); experiment: Cytotoxicity assay (MTT, 5 d) on CHO-K1; format: cell-based; settings: Cricetulus griseus, CHO-K1, 120 h
# Procedure: (§1) Cytotoxicity assay: A549 (human lung carcinoma cell line; ACC 107) and CHO-K1 (chinese hamster ovary cells; ACC 110) were obtained from the German Collection of Microorganisms and Cell Cultures (DSMZ) and cultured under the conditions recommended by the depositor. Cells were propagated in Dulbeccos’s Modified Eagle’s Medium (DMEM) and Ham’s F12 medium, respectively, supplemented with 10% fetal bovine serum (FBS), and seeded at 6×10^3 cells per well of 96-well plates in 120 μL of complete medium. After 2 h of equilibration (37 °C, 5% CO2), the cells were treated with a serial dilution of cytochalasins in 60 µL growth medium. Cytochalasins, doxorubicin as reference, as well as the solvent control were tested as duplicates in two independent experiments. After 5 d of incubation (37 °C, 5% CO2), a total of 20 μL of 5 mg/ml MTT (thiazolyl blue tetrazolium bromide) in phosphate -buffered saline (PBS) were added to each well […]
# (§2) and the cells were further incubated for 2 h at 37 °C before the supernatant was discarded.
# (§3) Subsequently, the cells were washed with 100 μL of PBS and treated with 100 μl of 2-propanol/10 N HCl (250:1) to dissolve formazan granules. Cell viability was measured as percentage relative to the respective solvent control by measuring the absorbance at 570 nm using a microplate reader (Tecan Infinite M200Pro). GraphPad Prism (version 10.0.3, GraphPad, Boston, MA, USA) was used for sigmoidal curve fitting to determine the IC50 values.
# [2] = test system: A549 (human lung carcinoma cell line); experiment: Cytotoxicity assay (MTT, 5 d) on A549; format: cell-based; settings: for IC50: Homo sapiens, A549, 120 h, MTT, 5 d incubation; for Cytotoxic activity against A549 (in words): positive control doxorubicin
# Procedure: as §1, §2, §3
# in vitro [3] = format: in vitro ADME, mouse; settings: for microsomal CLint: C57BL/6, mouse, microsomes; for half-life: mouse, 1 μM compound, 0.5 mg/mL pooled C57BL/6 microsomes, read-out: Mouse liver microsome t1/2
# Procedure: Assays in liver microsomes: For metabolic stability, the compound (1 μM) was incubated with 0.5 mg/mL pooled mouse (C57BL/6) microsomes (Xenotech, Kansas City, USA), 2 mM NADPH, 10 mM MgCl2 at 37 °C for 120 min on a microplate shaker. The metabolic stability of testosterone, verapamil and ketoconazole were determined in parallel to confirm the enzymatic activity of mouse/rat liver microsomes. The incubation was stopped after defined time points by precipitation of aliquots of the incubation mixture with 2 volumes of cold internal standard solution (15 nM diphenhydramine in 10% methanol/acetonitrile). Samples were stored on ice until the end of the incubation and precipitated protein was removed by centrifugation (15 min, 4 °C, and 4,000 g). Concentration of the remaining test compound at the different time points was analyzed by HPLC-MS/MS (Vanquish Flex coupled to a TSQ Altis Plus, Thermo Fisher, Dreieich, Germany) and used to determine half-life (t1/2). […]
# [4] = test system: Staphylococcus aureus Newman; experiment: Antibacterial activity against S. aureus Newman; format: cell-based; settings: Table S22
# in vitro [5] = format: in vitro ADME, mouse; settings: 1 μM compound, pooled CD-1 mouse plasma, read-out: Mouse plasma t1/2
# Procedure: Plasma stability assays: To determine stability in plasma, the compound (1 μM) was incubated with pooled CD-1 mouse plasma (Neo Biotech, Nanterre, France). Samples were taken by mixing aliquots with 4 volumes of cold internal standard solution (12.5 nM diphenhydramine in 10% methanol/acetonitrile). The plasma stability of procain, propantheline and diltiazem were determined in parallel to confirm the enzymatic activity. Samples were stored on ice until the end of the incubation and precipitated protein was removed by centrifugation (15 min, 4 °C, 4,000 g, two centrifugation steps). Concentration of the remaining test compound at the different time points was analyzed by HPLC-MS/MS (Vanquish Flex coupled to a TSQ Altis Plus, Thermo Fisher, Dreieich, Germany). […]
# [6] = Table S22, intrinsic clearance calculated from microsomal metabolism data
# [7] = Table 1, intrinsic clearance from microsomal metabolism data
Structure (SMILES),MIC (E. coli ΔacrB (JW0451-2)) [µg/mL],"IC50 ([1]; Table S22, 5 d incubation) [µg/mL]",IC50 ([2]; Table S22) [µg/mL],microsomal CLint (in vitro [3]; [6]) [µL/min/mg],half-life (in vitro [3]; Table S22) [min],MIC [4] [µg/mL],half-life at 1 μM (in vitro [5]; Table S22) [min],"IC50 ([1]; Table 1, 5 d incubation) [µg/mL]",IC50 ([2]; Table 1) [µg/mL],Cytotoxic activity against A549 (in words) [2],microsomal CLint (in vitro [3]; [7]) [µL/min/mg],"half-life (in vitro [3]; Table 1, 120 min) [min]",half-life at 1 μM (in vitro [5]; Table 1) [min]
"CC1=C(C)C2C(Cc3cccc(Cl)c3)NC(=O)C23C(O)C2OC2C(C)(O)C(=O)C(C)CC=CC3C1O (stereo not shown) [Compound 12, m-chloro-deacetyl-19,20-epoxycytochalasin C]",> 64,2.02 ± 1.2,> 37,39 ± 12,36 ± 10,> 64,> 240,,,,,,
"C#CCCC1(CCC(=O)OC2C(C)=C(C)C3C(Cc4ccccc4)NC(=O)C34C2C=CCC(C)C(=O)C(C)(O)C2OC2C4OC(C)=O)N=N1 (stereo not shown) [Compound 25, 7-diazirin-19,20-epoxycytochalasin C]",> 64,,,,,> 64,,14.2 ± 1.93,24.9,pronounced reduced activity,907 ± 388,1.7 ± 0.6,> 240
"CC(=O)OC1C2OC2C(C)(O)C(=O)C(C)CC=CC2C3OC3(C)C(C)C3C(Cc4cccc(Cl)c4)NC(=O)C213 (stereo not shown) [Compound 14, m-chloro-19,20-epoxycytochalasin Q]",> 64,0.69 ± 0.07,0.11 ± 0.05,45.7 ± 1.6,30.4 ± 1.1,> 64,> 240,,,,,,
"CC(=O)OC1C2OC2C(C)(O)C(=O)C(C)CC=CC2C(O)C(C)=C(C)C3C(Cc4ccccc4)NC(=O)C213 (stereo not shown) [Compound 3, 19,20-epoxycytochalasin C]",> 64,,,,,> 64,,0.51 ± 0.27,0.34 ± 0.13,comparable to the positive control,31.6 ± 1.4,43.9 ± 2,> 240
"C#CCCC1(CCC(=O)OC2C(=C)C(C)C3C(Cc4ccccc4)NC(=O)C34C2C=CCC(C)C(=O)C(C)(O)C2OC2C4OC(C)=O)N=N1 (stereo not shown) [Compound 26, 7-diazirin-19,20-epoxycytochalasin D]",> 64,7.02 ± 1.16,10.3,1020 ± 120,1.4 ± 0.1,> 64,> 240,,,,,,
"CC1=C(C)C2C(Cc3ccccc3)NC(=O)C23C(O)C2OC2C(C)(O)C(=O)C(C)CC=CC3C1O (stereo not shown) [Compound 4, deacetyl-19,20-epoxycytochalasin C]",> 64,4.63 ± 4.23,1.07,26.2 ± 0.1,53.1 ± 0.2,> 64,> 240,,,,,,
"CC(=O)O[C@@H]1/C=C/[C@@](C)(O)C(=O)[C@@H](C)C/C=C/[C@H]2[C@@H]3O[C@]3(C)[C@@H](C)[C@H]3[C@H](Cc4cccc(Cl)c4)NC(=O)[C@@]312 [Compound 13, m-chloro-cytochalasin Q]",> 64,0.41 ± 0.06,0.14 ± 0.02,95 ± 15,15 ± 3,> 64,> 240,,,,,,
"C[C@H]1C/C=C/[C@H]2[C@@H]3O[C@]3(C)[C@@H](C)[C@H]3[C@H](Cc4ccccc4Br)NC(=O)[C@]32C(=O)C[C@@H](O)[C@@](C)(O)C1=O [Compound 21, o-bromo-19-hydroxy-21-oxocytochalasin Q]",> 64,3.04 ± 0.18,0.79 ± 0.24,124 ± 9,11.2 ± 0.8,> 64,> 240,,,,,,
"CC(=O)OC1C2OC2C(C)(O)C(=O)C(C)CC2OC2C2C3OC3(C)C(C)C3C(Cc4ccccc4)NC(=O)C132 (stereo not shown) [Compound 8, 19,20-epoxycytochalasin R]",> 64,17.3 ± 8.94,> 37,37 ± 4,38 ± 4,> 64,> 240,,,,,,
"CC(=O)OC1C2OC2C(C)(O)C(=O)C(C)CC=CC2C(O)C(C)=C(C)C3C(Cc4cccc(Cl)c4)NC(=O)C213 (stereo not shown) [Compound 11, m-chloro-19,20-epoxycytochalasin C]",> 64,,,,26.4 ± 1.2,> 64,,0.67 ± 0.53,0.04,lower nanomolar activities,52.7 ± 2.5,,> 240
"C=C1C(C)C2C(Cc3ccccc3)NC(=O)C23C(C=CCC(C)C(=O)C(C)(O)C2OC2C3OC(C)=O)C1O (stereo not shown) [Compound 9, 19,20-epoxycytochalasin D]",> 64,,,,,> 64,,10.3 ± 5.07,,,35 ± 3,40 ± 3.7,> 240
"CC(=O)OC1C2OC2C(C)(O)C(=O)C(C)CC=CC2C3OC3(C)C(C)C3C(Cc4ccccc4)N(C(C)=O)C(=O)C213 (stereo not shown) [Compound 24, N-acetyl-19,20-epoxycytochalasin Q]",> 64,3.06 ± 0.5,0.72 ± 0.12,558 ± 58,2.5 ± 0.3,> 64,> 240,,,,,,
"CC1CC=CC2C3OC3(C)C(C)C3C(Cc4ccccc4Br)NC(=O)C23C(=O)C2OC2C(C)(O)C1=O (stereo not shown) [Compound 20, o-bromo-19,20-epoxy-21-oxocytochalasin Q]",> 64,1.38 ± 0.04,0.62 ± 0.04,234 ± 28,6 ± 0.7,> 64,> 240,,,,,,
"CC(=O)OC1C2OC2C(C)C(=O)C(C)CC=CC2C3OC3(C)C(C)C3C(Cc4cccc(Cl)c4)NC(=O)C213 (stereo not shown) [Compound 16, m-chloro-18-desoxy-19,20-epoxycytochalasin Q]",> 64,3.13 ± 2.94,1.02 ± 0.13,,,> 64,,0.41 ± 0.1,0.08 ± 0.02,,984 ± 105,1.4 ± 0.1,> 240
"CC1CC=CC2C3OC3(C)C(C)C3C(Cc4cccc(Cl)c4)NC(=O)C23C(O)C2OC2C(C)(O)C1=O (stereo not shown) [Compound 15, m-chloro-deacetyl-19,20-epoxycytochalasin Q]",> 64,,0.08 ± 0.03,,,> 64,,0.81 ± 0.1,0.04 ± 0.03,lower nanomolar activities,39 ± 3,36 ± 3,> 240
"CC(=O)O[C@@H]1/C=C/[C@@](C)(O)C(=O)[C@@H](C)C/C=C/[C@H]2[C@H](O)C(C)=C(C)[C@H]3[C@H](Cc4ccccc4)NC(=O)[C@@]123 [Compound 2, cytochalasin C]",> 64,1.48 ± 1.38,3.34 ± 0.92,88 ± 7,15.8 ± 1.2,> 64,> 240,,,,,,
"CC(=O)OC1C(C)=C(C)C2C(Cc3ccccc3)NC(=O)C23C1C=CCC(C)C(=O)C(C)(O)C1OC1C3OC(C)=O (stereo not shown) [Compound 23, 7-acetyl-19,20-epoxycytochalasin C]",> 64,,,,,> 64,,15.7 ± 3.05,> 37,pronounced reduced activity,231 ± 36,6.1 ± 1,> 240
"COc1cccc2c1C(=O)c1c(O)c3c(c(O)c1C2=O)C[C@@](O)(C(=O)CO)C[C@@H]3O[C@H]1C[C@H](N)[C@H](O)[C@H](C)O1 [doxorubicin, reference compound]",,,,,,,,,0.3,,,,
